From publication PMC8880313, “Discovery of Novel Andrographolide Derivatives as Antiviral Inhibitors against Human Enterovirus A71” (Pharmaceuticals, 2022)
pIC50: −log10 of the molar value.

Key:
[1] = test system: EV-A71; experiment: Immunofluorescence-based preliminary screen of EV-A71-infected RD cells; format: cell-based, human enterovirus A71 (EV-A71) strain 41; details: EV-A71-infected RD cells (MOI = 1)
Text: The screening assay was built using an immunofluorescence approach that was previously established and validated, with DAPI-stained nuclei accounting for total cell count and FITC-stained EV-A71 accounting for infected cell count upon EV-A71 infection and compound treatment. Both cell counts would then be used to calculate percentage infection and percentage inhibition to identify for hits. Before the screening platform can be employed to screen for potential antivirals, its robustness has to be appraised. In this study, Z-factor was calculated to assess the robustness of the screening platform. Firstly, seeded RD cells were either infected with EV-A71 (Multiplicity of Infection of 1) or mock-infected with media. The cells were then fixed, stained and imaged 12 h post-infection (hpi). The IFA images were analyzed with the Cell Profiler software to determine the infection rate of each well. Between the virus-infected and mock-infected wells, a clear distinction in infection rates could be observed (Figure 1a). […] In this case, the Z-factor, measured at 0.818, was indicative of a highly robust screening platform for high-throughput screening. The constructed screening platform was then employed to screen the compound library made up of 344 chemically synthesized novel compounds analogous to andrographolide. The compounds were screened at 10 µM with IFA images taken and analyzed to identify for hits. Treatment with 0.1% DMSO was used as vehicle control.
Seeded 96-well plates (Corning Inc., Corning, NY, USA), with 2 × 10^4 RD cells per well, were incubated overnight at 37 °C with 5% CO2. The seeded cells were then infected with EV-A71 (50 µL per well, MOI = 1) for 1 h at 37 °C with 5% CO2. The EV-A71-infected cells were then treated with the compound library at a final concentration of 10 µM for 12 h at 37 °C with 5% CO2. Treatment with 0.1% DMSO was used as vehicle control. Following treatment, cells were fixed with 100 µL of methanol (Sinopharm Chemical, Shanghai, China) for 15 min at −20°C and rinsed with 100 µL of 1x PBS for three times before performing indirect immunofluorescence assay (IFA). Anti-EV-A71 VP2 1° antibodies, MAB979 (Merck Millipore, Burlington, VT, USA), diluted 500-fold in PBS, was incubated with the fixed cells for 1 h at 37 °C. Cells were then rinsed thrice with PBS and incubated with anti-mouse FITC 2° antibodies (Merck Millipore), diluted 200-fold in PBS, for 1 h at 37 °C. After which, the cells were rinsed thrice with PBS before staining with DAPI (Sigma-Aldrich) at room temperature for 15 min. Cells were then rinsed thrice and preserved in 100 µL of PBS before imaging with the Operetta High-Content Imaging System and the Harmony High-Content Imaging and Analysis Software (Perkin Elmer, Waltham, MA, USA). Images of stained cells were captured with the DAPI and FITC fluorescence filters, from a pre-determined central position of each well and processed with the Cell Profiler software. […] The percentage infection (PI) for each well was calculated using the formula: Infected cell count/Total cell count × 100%. The percentage inhibition for each well was calculated using the formula PI0− PI/PI0 × 100% where PI0 refers to the percentage infection of wells treated with the vehicle control while PI refers to the percentage infection of wells treated with the compounds.

[2] = Cell viability assay (alamarBlue); format: cell-based, human; details: human, RD cells
Method: (§1) Firstly, we performed cell viability assay to evaluate the cytotoxicity profile of the 19 hits. Cells seeded overnight were treated with the hit compounds at 10 µM. […] Anti-EV-A71 activity of AGP-253 had been illustrated and discussed previously. We were particularly interested in ZAF-46 and ZAF-47 as they belonged to the same series bearing novel 14-quinolinoxy and 17-hydro-8,9-olefin modifications (Figure 2b) that could potentially open up new targets for EV-A71 therapeutics. Additional cell viability assays were performed for ZAF-46 and ZAF-47 at different concentrations to identify the low cytotoxic concentrations for downstream post-treatment assays. For post-treatment assays, cells seeded overnight were infected with EV-A71 and subsequently treated with ZAF-46 and ZAF-47 at different concentrations. […] Treatment with ZAF-46 led to 1.4 log reduction at 10 µM and 2.4 log reduction at 20 µM (Figure 2c) while treatment with ZAF-47 led to 0.8 log reduction at 5 µM, 1.1 log reduction at 10 µM and 2.1 log reduction at 20 µM (Figure 2d). CC50 and IC50 for both compounds were determined and used to derive their SI (Table 2). ZAF-47 was selected for further downstream analysis due to its higher SI value which indicate higher pharmacological value for clinical use.
(§2) To determine the cytotoxicity profiles of the hits, cell viability assay was performed. Seeded 96-well plates, with 2 × 10^4 RD cells per well, were incubated overnight at 37 °C with 5% CO2. Different concentrations of drug hits, diluted by reduced serum DMEM, were used to treat the seeded cells for 12 h at 37 °C with 5% CO2. Reduced serum DMEM, was employed as the negative control and 0.1% DMSO as the vehicle control for this step. Subsequently, the supernatant was replaced with alamarBlue^TM Cell Viability Reagent (Thermo Fisher Scientific, Waltham, MA, USA) (100 µL), diluted 10-fold in reduced serum DMEM, and incubated for 3 h at 37 °C with 5% CO2. Fluorescence intensity in each well was measured at 570 nm excitation wavelength and 600 nm emission wavelength in each well by the Infinite^TM 200 series microplate reader (Tecan, Männedorf, Switzerland) and normaliszd with the negative control to determine the relative cell viability.

[3] = test system: RD cells; experiment: Cell viability assay (alamarBlue); format: cell-based, human; details: 10 µM, 12 h
Method: as §1, §2

[4] = test system: EV-A71; experiment: Post-treatment assay with viral plaque assay; format: cell-based, human enterovirus A71 (EV-A71) strain 41; details: for reduction in viral titre: post-treatment, 12 hpi
Method: as §1
To determine the inhibitory profiles of the hits, post treatment assay was performed. Seeded 24-well plates, with 1.5 × 10^5 RD cells per well, were incubated overnight at 37 °C with 5% CO2. The seeded cells were infected with EV-A71 (100 µL per well, MOI = 1) for 1 h at 37 °C with 5% CO2 and then rinsed with 1 mL of PBS twice. Different concentrations of the hits were used to treat the infected cells for 12 h at 37 °C with 5% CO2. At 12 hpi, the plates were frozen and thawed for 2 cycles (−80°C; 37 °C) before collection of supernatants to measure the viral titres via viral plaque assay.
Measurement of the viral titres from collected supernatants was derived from viral plaque assays. To do this, 24-well plates, seeded with 2.4 × 10^5 RD cells per well, were used in plaque assays for EV-A71, EV-D68, Echo7, CV-A6, CV-A16 and CV-A24 while 24-well plates, seeded with 1.2 × 10^5 Vero cells per well, were used in plaque assays for CV-B5. Seeded cells were incubated overnight at 37 °C with 5% CO2. Viral supernatants were diluted from 10^−1 to 10^−7 in reduced serum DMEM before infecting the cells with a volume of 100 µL for 1 h at 37 °C with 5% CO2 (33 °C instead for EV-D68). Cells were rinsed twice with PBS before overlaying with 1 mL of reduced serum DMEM containing 0.5% agarose (Vivantis, Shah Alam, Malaysia). Cells infected with Echo7 supernatants were incubated for 2 days, cells infected with CV-A24 and CV-B5 supernatants were incubated for 3 days and cells infected with EV-A71, CV-A6, CV-A16 and EV-D68 supernatants were incubated for 4 days for the formation of plaques. Subsequently, the cells were fixed and stained overnight with 4% paraformaldehyde and 1% crystal violet (Sigma-Aldrich). Subsequent formation of viral plaques was counted manually to quantify the viral titre in PFU/mL

[5] = test system: replication-competent EV-A71 RNA replicon; experiment: Nano-luciferase reporter assay, replication-competent replicon; format: cell-based, human enterovirus A71 (EV-A71); details: RD cells, 12 h; ZAF-47 different concentrations, GuHCl 1 mM
Method: To identify specifically which of these two intrinsically linked processes that ZAF-47 inhibits, we transfected RD cells with EV-A71 RNA replicons that were either replication-competent or replication-defective and subsequently treated them with different concentrations of ZAF-47 for 12 h before detecting for luminescence. Both forms of replicons were previously established and validated. The replication-competent replicon is capable of self-replicating as it contains an intact 3D region that encodes for 3D polymerase (3D^pol) responsible for RNA replication (Figure 4c). […] In contrast, the replication-defective replicon contains a 3D region with 159 nucleotide deletion which would produce a non-functional 3D protein and impair RNA replication (Figure 4c). As such, cells containing the replication-defective replicon express luciferase upon IRES translation of the original replicons only. The transfected cells were also treated with negative control, DMSO and positive controls, guanidine hydrochloride (GuHCl) and cycloheximide (CHX), a RNA replication-specific inhibitor [50] and a general translation inhibitor [51] respectively.
Seeded 96-well plates, with 2 × 10^4 RD cells per well, were incubated overnight at 37 °C with 5% CO2. […]

[6] = parameters: method as in PMID 34816382; details: cited from earlier work
[7] = parameters: method as in PMID 34816382; details: cited from earlier work; remark: listed apart in the source

## CC(=O)OC[C@]1(C)[C@H](O)CC[C@@]2(C)C(C/C=C3/C(=O)OC[C@@H]3Oc3cccc4cccnc34)=C(C)CC[C@H]12 [ZAF-46, (14β)-(8′-Quinolinoxy)-9-dehydro-17-hydro-19-acetoxy-andrographolide]
[1]; 10 µM, 12 h, 0.1% DMSO wells 998
  Nuclei Count: 1037
[1]; Enterovirus A, EVA71, 12 h, read-out: Inhibition Rate (%)
  inhibition at 10 µM: 96%
[2]
  CC50 at 12 h: 29.9 µM
[3]
  cytotoxicity: low cytotoxicity
[4]; 10 µM
  reduction in viral titre: 1.4 log
[4]; 20 µM
  reduction in viral titre: 2.4 log
[4]; Enterovirus A, EVA71, EV-A71-infected RD cells, MOI = 1, 12 h treatment, viral plaque assay
  pIC50: 5.35
[4]; SI = CC50/IC50
  Selectivity Index (SI): 6.73

## Cl.N=C(N)N [GuHCl, guanidine hydrochloride, reference compound]
[5]
  luminescence, replication-competent replicon: significant decrease in luminescence

## CC1(CO)C(O)CCC2(C)C(CC=C3C(=O)OCC3Oc3ccc([N+](=O)[O-])cc3Cl)C3(CCC12)CO3 (stereo not drawn) [AGP-253, 14S-(2′-Chloro-4′-Nitrophenoxy)-8R/S, 17-Epoxy Andrographolide]
[1]; 10 µM, 12 h
  Inhibition Rate (%): 98.91%
[3]
  cytotoxicity: low cytotoxicity

## C=C1CC[C@@H]2[C@](C)(CO)[C@H](O)CC[C@@]2(C)[C@@H]1C/C=C1/C(=O)OC[C@H]1O [andrographolide]
[6]
  water solubility: low water solubility
[7]
  bioavailability: poor bioavailability
